Experimental data published in patent US20250228865A1, “COMPOUNDS FOR ENHANCING READ THROUGH OF GENES CONTAINING PREMATURE TERMINATION CODONS AND METHODS FOR MAKING AND USING THE SAME” (Sanofi US Services Inc., priority 2022, published 2025).
pEC50: −log10 of the molar value.

What was measured:
[1] = test system: recombinant human CFTR carrying the premature stop codon (PTC) mutation G542X; experiment: CFTR-PTC mutant translation readthrough, Nanoluc tagged CFTR luminescence (G542X cell line); assay type: cell-based; conditions: in combination with G418, G542X cell line; for CFTR G542X ACTIVITY Fold 10 μM G-418: fold over 10 μM G-418; for pEC50: 16HBE cells
In short: (§1)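 16HBE cells stably expressing Nanoluc-tagged human CFTR with G542X or R1162X, in medium with 3 μM VX-809, treated 48 h at 37 °C with compound (10-point, 2-fold, top 50 μM final) alone or with 10 μM G418. Live-cell Nanoluc luminescence normalised to a maximally effective G418 (125-250 μM).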

[2] = test system: recombinant human CFTR carrying the premature stop codon (PTC) mutation R1162X; experiment: CFTR-PTC mutant translation readthrough, Nanoluc tagged CFTR luminescence (R1162X cell line); assay type: cell-based; conditions: for CFTR R1162X ACTIVITY Fold 10 μM G-418: fold over 10 μM G-418, in combination with G418; for pEC50: in combination with G418, 16HBE cells, read-out: CFTR R1162X ACTIVITY EC50
In short: as §1

| SMILES | pEC50 [1] | pEC50 [2] | CFTR G542X ACTIVITY Fold 10 μM G-418 [1] | CFTR R1162X ACTIVITY Fold 10 μM G-418 [2] |
| --- | --- | --- | --- | --- |
| Cc1cccc(C(F)(F)F)c1COc1cnc(N2CCNCC2)nc1 [5-{[2-methyl-6-(trifluoromethyl)phenyl]methoxy}-2-(piperazin-1-yl)pyrimidine] | 5.00 to 6.00 | 5.00 to 6.00 | A′ (A′ = ≥10X) | A′ (A′ = ≥10X) |
| O=c1[nH]ncc2cc(OCc3c(Cl)cccc3Cl)ccc12 [6-[(2,6-dichlorophenyl)methoxy]-2H-phthalazin-1-one] | < 5.00 | 5.00 to 6.00 | B′ (B′ = ≥5X to <10X) | A′ (A′ = ≥10X) |
| O=C1O[C@@H](CO)CN1c1ccc(OCc2c(Cl)cccc2Cl)cc1 [(5R)-3-[4-[(2,6-dichlorophenyl)methoxy]phenyl]-5-(hydroxymethyl)oxazolidin-2-one] | 5.00 to 6.00 | 5.00 to 6.00 | A′ (A′ = ≥10X) | A′ (A′ = ≥10X) |
| O=C1Cc2cc(NCc3c(Cl)cccc3Cl)ccc2C(=O)N1 [Compound 303, 6-[(2,6-dichlorophenyl)methylamino]-4H-isoquinoline-1,3-dione] | < 5.00 | < 5.00 |  |  |
| NCc1nnc(-c2ccc(OCc3c(Cl)cccc3Cl)cc2)o1 [Example 226, [5-[4-[(2,6-dichlorophenyl)methoxy]phenyl]-1,3,4-oxadiazol-2-yl]methanamine] | 5.00 to 6.00 | 5.00 to 6.00 | B′ (B′ = ≥5X to <10X) | B′ (B′ = ≥5X to <10X) |
| NCc1cn(-c2ccc(OCc3c(Cl)cccc3Cl)cc2)cn1 [Example 227, [1-[4-[(2,6-dichlorophenyl)methoxy]phenyl]imidazol-4-yl]methanamine] | 5.00 to 6.00 | 5.00 to 6.00 | B′ (B′ = ≥5X to <10X) | B′ (B′ = ≥5X to <10X) |
| NCc1cc(-c2ccc(OCc3c(Cl)cccc3Cl)cn2)no1 [Example 234, [3-[5-[(2,6-dichlorophenyl)methoxy]-2-pyridyl]isoxazol-5-yl]methanamine] | > 6.00 | 5.00 to 6.00 | A′ (A′ = ≥10X) | A′ (A′ = ≥10X) |
| OCc1cn(-c2ccc(CCc3c(Cl)cccc3Cl)cc2)cn1 [[1-[4-[2-(2,6-dichlorophenyl)ethyl]phenyl]imidazol-4-yl]methanol] | 5.00 to 6.00 | < 5.00 | B′ (B′ = ≥5X to <10X) | A′ (A′ = ≥10X) |
| OCc1ncn(-c2ccc(OCc3c(Cl)cccc3Cl)cc2)n1 [[1-[4-[(2,6-dichlorophenyl)methoxy]phenyl]-1,2,4-triazol-3-yl]methanol] | 5.00 to 6.00 | 5.00 to 6.00 | A′ (A′ = ≥10X) | A′ (A′ = ≥10X) |
| OCc1cn(-c2ccc(OCc3c(Cl)cccc3Cl)cc2)cn1 [[1-[4-[(2,6-dichlorophenyl)methoxy]phenyl]imidazol-4-yl]methanol] | > 6.00 | 5.00 to 6.00 | A′ (A′ = ≥10X) | A′ (A′ = ≥10X) |
| NCc1ccn(-c2ccc(OCc3c(Cl)cccc3Cl)cc2)n1 [[1-[4-[(2,6-dichlorophenyl)methoxy]phenyl]pyrazol-3-yl]methanamine] | 5.00 to 6.00 | 5.00 to 6.00 | B′ (B′ = ≥5X to <10X) | A′ (A′ = ≥10X) |
| OCc1ccn(-c2ccc(OCc3c(Cl)cccc3Cl)cc2)n1 [[1-[4-[(2,6-dichlorophenyl)methoxy]phenyl]pyrazol-3-yl]methanol] | > 6.00 | 5.00 to 6.00 | A′ (A′ = ≥10X) | A′ (A′ = ≥10X) |
| OCc1cnn(-c2ccc(OCc3c(Cl)cccc3Cl)cc2)c1 [[1-[4-[(2,6-dichlorophenyl)methoxy]phenyl]pyrazol-4-yl]methanol] | 5.00 to 6.00 | 5.00 to 6.00 | A′ (A′ = ≥10X) | A′ (A′ = ≥10X) |
| OCc1cn(-c2ccc(OCc3cc(Cl)cc(Cl)c3)cc2)cn1 [[1-[4-[(3,5-dichlorophenyl)methoxy]phenyl]imidazol-4-yl]methanol] | 5.00 to 6.00 | < 5.00 |  | C′ (C′ = <5X) |

Continued, in another order:

| pEC50 [1] | pEC50 [2] | SMILES | CFTR G542X ACTIVITY Fold 10 μM G-418 [1] | CFTR R1162X ACTIVITY Fold 10 μM G-418 [2] |
| --- | --- | --- | --- | --- |
| > 6.00 | 5.00 to 6.00 | FC(F)(F)c1cccc(Cl)c1COc1cnc(-n2cncn2)nc1 [5-[[2-chloro-6-(trifluoromethyl)phenyl]methoxy]-2-(1,2,4-triazol-1-yl)pyrimidine] | A′ (A′ = ≥10X) | A′ (A′ = ≥10X) |
| 5.00 to 6.00 | 5.00 to 6.00 | Cc1cccc(C(F)(F)F)c1COc1cnc(-n2cnnc2)nc1 [5-[[2-methyl-6-(trifluoromethyl)phenyl]methoxy]-2-(1,2,4-triazol-4-yl)pyrimidine] | A′ (A′ = ≥10X) | A′ (A′ = ≥10X) |
| > 6.00 | 5.00 to 6.00 | Clc1cccc(Cl)c1COc1cnc(N2CCC3(CCO3)C2)nc1 (stereo not shown) [7-[5-[(2,6-dichlorophenyl)methoxy]pyrimidin-2-yl]-1-oxa-7-azaspiro[3.4]octane] | A′ (A′ = ≥10X) | A′ (A′ = ≥10X) |
| 5.00 to 6.00 | < 5.00 | O[C@@H]1CN(c2ncc(OCc3c(Cl)cccc3Cl)cn2)C[C@@H]1O [(3R,4S)-1-[5-[(2,6-dichlorophenyl)methoxy]pyrimidin-2-yl]pyrrolidine-3,4-diol] | A′ (A′ = ≥10X) | A′ (A′ = ≥10X) |
| 5.00 to 6.00 | 5.00 to 6.00 | O[C@H]1CCN(c2ncc(OCc3c(Cl)cccc3Cl)cn2)C1 [(3S)-1-[5-[(2,6-dichlorophenyl)methoxy]pyrimidin-2-yl]pyrrolidin-3-ol] | A′ (A′ = ≥10X) | A′ (A′ = ≥10X) |
| 5.00 to 6.00 | 5.00 to 6.00 | O=C1N[C@@H](CO)CN1c1ncc(OCc2c(Cl)cccc2C(F)(F)F)cn1 [(4R)-1-(5-{[2-chloro-6-(trifluoromethyl)phenyl]methoxy}pyrimidin-2-yl)-4-(hydroxymethyl)imidazolidin-2-one] | C′ (C′ = <5X) | C′ (C′ = <5X) |
| 5.00 to 6.00 | < 5.00 | O=C1O[C@H](CO)CN1c1ncc(OCc2c(Cl)cccc2C(F)(F)F)cn1 [(5S)-3-(5-{[2-chloro-6-(trifluoromethyl)phenyl]methoxy}pyrimidin-2-yl)-5-(hydroxymethyl)-1,3-oxazolidin-2-one] | C′ (C′ = <5X) | C′ (C′ = <5X) |
| 5.00 to 6.00 | 5.00 to 6.00 | O=C1O[C@H](CO)CN1c1ccc(OCc2c(Cl)cccc2Cl)cc1 [(5S)-3-[4-[(2,6-dichlorophenyl)methoxy]phenyl]-5-(hydroxymethyl)oxazolidin-2-one] | B′ (B′ = ≥5X to <10X) | B′ (B′ = ≥5X to <10X) |
| 5.00 to 6.00 | 5.00 to 6.00 | OCc1cc(-c2ncc(OCc3c(Cl)cccc3Cl)cn2)[nH]n1 [Compound 252, [5-[5-[(2,6-dichlorophenyl)methoxy]pyrimidin-2-yl]-1H-pyrazol-3-yl]methanol] | A′ (A′ = ≥10X) | B′ (B′ = ≥5X to <10X) |
| 5.00 to 6.00 | 5.00 to 6.00 | O=C1CN(c2ncc(OCc3c(Cl)cccc3Cl)cn2)C(=O)N1 [Example 323, 1-{5-[(2,6-dichlorophenyl)methoxy]pyrimidin-2-yl}imidazolidine-2,4-dione] | C′ (C′ = <5X) | C′ (C′ = <5X) |
| 5.00 to 6.00 | 5.00 to 6.00 | OCc1cn(-c2ccc(OCc3c(Cl)cccc3C(F)(F)F)cc2)nn1 [[1-[4-[[2-chloro-6-(trifluoromethyl)phenyl]methoxy]phenyl]triazol-4-yl]methanol] | A′ (A′ = ≥10X) | A′ (A′ = ≥10X) |
